Assay results as given in patent US7390870B2, “Immune-enhancing peptides” (Posco, priority 2001, dated 2008).
No end group written: not given here.

What was measured:
Format in all cases: cell-based
human monocytes [1] = experiment: [Ca2+]i rise in human monocytes (fura-2/AM)
Procedure: (§1) The level of [Ca^2+]i was determined by Grynkiewicz's method using fura-2/AM (21). Briefly, prepared cells were incubated with 3 μM fura-2/AM at 37° C. for 50 minutes in a fresh serum-free RPMI 1640 medium under continuous stirring. 2×10^6 cells were aliquoted for each assay in Ca^2+-free Locke's solution (154 mM NaCl, 5.6 mM KCl1.2 mM MgCl2, 5 mM HEPES, pH 7.3, 10 mM glucose, and 0.2 mM EGTA). The fluorescence changes at the dual excitation wavelengths of 340 nm and 380 nm and the emission wavelength of 500 nm were measured, and the calibrated fluorescence ratio was translated into [Ca^2+]i.
Many extracellular agonists that stimulate superoxide generation in human phagocytic cells involve intracellular calcium rise (23). In this example, the effect of the peptides on the [Ca^2+]i of monocytes were tested. The results are shown FIG. 3. The data of FIG. 3 are presented as means ±S.E. of four independent experiments. *P<0.01 versus vehicle treatment.
Fura-2-loaded monocytes were stimulated with an effective concentration of HFYLPM (1 μM), MFYLPM (1 μM), HFYLPm (100 nM), and LFMYHP (10 μM). The change in 340 nm/380 nm was monitored. The cells were stimulated with various concentrations of each peptide. The peak level of the increase in [Ca^2+]i was monitored. […] The results of A of FIG. 3 are representative of 6 independent experiments. […]

human neutrophils = experiment: [Ca2+]i increase in human neutrophils (fura-2); settings: FIG. 4A; 1 μM peptide
Procedure: as §1
From the fact that HFYLPM, MFYLPM, and HFYLPm stimulate human monocytes, effects of the peptides on other leukocytes such as neutrophils were evaluated. Prepared human primary monocytes, neutrophils, cultured HL60, Jurkat, U937, NIH3T3, 3Y1, 3T3L1, and PC12 cells were loaded with fura-2 and stimulated with effective concentrations of the three peptides (1 μM for monocyte and neutrophil; 10 μM for HL60 and Jurkat; 20 μM for U937, NIH3T3, 3Y1, 3T3L1, and PC12). The peak level of the [Ca^2+]i increase was recorded and superoxide generation was measured using cytochrome c reduction assay. The results are shown FIG. 4. The data of FIG. 4 are presented as means ±S.E. from at least three independent experiments.

human monocytes [2] = experiment: Superoxide generation in human monocytes (cytochrome c reduction assay); parameters: activity in terms of superoxide generation among the identified peptides: dose or concentration left out as unconfirmed
Procedure: For initial screening of the PS-SPCLs, the superoxide anion generation of each peptide pool was evaluated by measuring reduction of cytochrome c using a microtiter 96 well plate ELISA reader (Bio-Tekinstruments, EL312e, Winooski, Vt.) as described (20). The cytochrome c was purchased from Sigma (St. Louis, Mo.). The human monocytes (9×10^5 cells/100 □ of RPMI 1640 medium per well of a 96-well plate) were preincubated with 50 μM cytochrome c at 37° C. for 1 minute and then incubated with the indicated concentrations of peptide pools (final 0.5 nM per peptide sequence for the initial screening). The superoxide generation was measured as change in light absorption at 550 nm over 5 minutes at 1 minute intervals. From at least four independent experiments, peptides with active amino acids at each position were chosen. Superoxide generation by the identified peptides was measured by the same method. Spurious reduction of cytochrome c was ruled out by checking that the peptides-induced ones were superoxide dismutase-inhibitable in all experiments.
Based on the results of the initial screening of the peptide libraries of Example 4, a peptide pool containing twelve (2×1×1×1×2×3=12) individual hexapeptides were generated by reiterative synthesis. […]
The superoxide generated was measured using a cytochrome c reduction assay as described above. […]

With “Met-Phe-Tyr-Leu-Pro-Met-CONH2 (MFYLPM-NH2)” the “effect on [Ca2+]i in monocytes” value (human monocytes [1]; FIG. 3A, HFYLPM 1 μM, MFYLPM 1 μM, HFYLPm 100 nM, LFMYHP 10 μM) was “caused intracellular Ca mobilization”, the “concentration of maximal [Ca2+]i increase” value (human monocytes [1]; FIG. 3B) was 1 µM and the “[Ca2+]i increase in neutrophils” value (human neutrophils) was “increase their [Ca^2+]i”. The “activity in terms of superoxide generation among the identified peptides” value (human monocytes [2]; FIG. 2A, monocytes stimulated) was “most active” and the “concentration of maximal activity, superoxide generation” value (human monocytes [2]; FIG. 2B, concentration dependency) was 3.3 µM.
